Reference: ChEMBL document CHEMBL1139518, “A new structural motif for mu-opioid antagonists” (J Med Chem, 2005)
Where a SMILES comes first, the peptide text is derived from it.

Columns and labels:
[1] = molecular target: Delta-type opioid receptor (Rattus norvegicus, UniProt P33533); assay: Inhibition of [3H][Ile5,6]-deltorphin I binding to rat Opioid receptor delta
Mus musculus [2] = species: Mus musculus; assay: Antagonist activity of compound against DPDPE-induced electrically evoked contractions of mouse vas deferens; type: functional
[3] = Antagonist activity of compound against TAPP-induced electrically evoked contractions of guinea pig ileum; type: functional, Cavia porcellus
[4] = Ratio of antagonist activity against TAPP-induced contractions of guinea pig ileum to that of DPDPE-induced contractions of mouse vas deferens; type: functional, Cavia porcellus
Mu-type opioid receptor = Mu-type opioid receptor (Rattus norvegicus, UniProt P33535); assay: Inhibition of [3H]naloxone binding to rat Opioid receptor mu
Mus musculus [5] = species: Mus musculus; assay: Atagonist activity of compound against DPDPE-induced electrically evoked contractions of mouse vas deferens; type: functional

Sequence of Mu-type opioid receptor (P33535 whole entry): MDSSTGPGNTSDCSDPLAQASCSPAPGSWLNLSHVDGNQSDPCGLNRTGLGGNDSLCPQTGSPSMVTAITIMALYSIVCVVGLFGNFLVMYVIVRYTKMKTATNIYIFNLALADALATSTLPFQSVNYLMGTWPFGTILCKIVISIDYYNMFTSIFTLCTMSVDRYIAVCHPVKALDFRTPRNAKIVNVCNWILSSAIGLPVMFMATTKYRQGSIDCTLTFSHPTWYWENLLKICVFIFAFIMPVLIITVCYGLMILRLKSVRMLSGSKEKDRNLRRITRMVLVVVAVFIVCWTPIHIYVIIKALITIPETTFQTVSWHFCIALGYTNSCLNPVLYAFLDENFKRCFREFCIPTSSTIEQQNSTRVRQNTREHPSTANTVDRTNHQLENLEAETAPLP
Sequence of Delta-type opioid receptor (P33533 whole entry): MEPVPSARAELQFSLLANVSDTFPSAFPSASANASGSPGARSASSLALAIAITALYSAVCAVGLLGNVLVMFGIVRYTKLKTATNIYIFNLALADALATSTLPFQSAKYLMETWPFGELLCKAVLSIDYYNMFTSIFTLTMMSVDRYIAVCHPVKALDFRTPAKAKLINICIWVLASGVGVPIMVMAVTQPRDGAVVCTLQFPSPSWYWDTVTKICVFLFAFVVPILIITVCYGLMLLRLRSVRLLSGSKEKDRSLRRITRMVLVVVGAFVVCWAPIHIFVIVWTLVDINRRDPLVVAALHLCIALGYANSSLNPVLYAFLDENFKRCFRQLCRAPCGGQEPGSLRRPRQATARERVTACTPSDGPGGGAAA

Row | SMILES | Ki [1] [µM] | Ke (Mus musculus [2]) [nM] | Ke [3] [nM] | Ratio [4] | Ki (Mu-type opioid receptor) [µM] | Ke (Mus musculus [5]) [nM]
1 | Cc1cc(O)cc(C)c1C[C@@H](N)CN1Cc2ccccc2C[C@H](NC(=O)Cc2ccccc2)C1=O | 0.684 | 185 | 207 | 1.666 | 0.0151 | –
2 | Cc1cc(O)cc(C)c1C[C@@H](N)CN1Cc2ccccc2C[C@@H](NC(=O)Cc2ccccc2)C1=O | 2.9 | 1440 | 85.1 | 0.058 | 0.0417 | –
3 | N[C@@H](Cc1ccc(O)cc1)C(=O)N1Cc2ccccc2C[C@H]1C(=O)N[C@@H](Cc1ccccc1)C(=O)N[C@@H](Cc1ccccc1)C(=O)O (HELM PEPTIDE1{Y.[Tic].F.F}$$$$V2.0) | – | – | – | – | – | 4.8
4 | Cc1cc(O)cc(C)c1C[C@H](N)CN1Cc2ccccc2C[C@H](NC(=O)Cc2ccccc2)C1=O | 0.0258 | 318 | 38.6 | 0.125 | 0.0033 | –
5 | Cc1cc(O)cc(C)c1C[C@H](N)CN1Cc2ccccc2C[C@@H](NC(=O)Cc2ccccc2)C1=O | 1.1 | 1590 | 823 | 0.5 | 0.0235 | –
